Experimental data reported in patent publication US8937088B2, “Ureas for the treatment and prevention of cancer” (Astar Biotech LLC, priority 2011, dated 2015).
Like-named read-outs stand apart in the source and are kept apart here.

Experiments:
[1] = system: LNCaP (human prostate adenocarcinoma cell line); test: Cell death detection, trypan blue exclusion assay, LNCaP; format: cell-based; conditions: read-out: Cell Death (%) at Tested Concentration
Description: (§1) Biological Test 2. Cell Death Detection Using Trypan Blue Exclusion Assay.
(§2) After drug treatment, cells were harvested by trypsinization with trypsin/EDTA for 10 min at 37° C. As some apoptotic cells detached from the culture substratum into the medium, these cells were also collected by centrifugation of the medium at 1,200 rpm for 5 min. The pooled cell pellets were resuspended and mixed with trypan blue dye. After Trypan blue stain was done, cells were counted by using a light microscope and a hemocytometer. Blue dye-incorporating cells were scored as being dead. Five hundred cells from randomly chosen fields were counted, and the number of dead cells was counted and expressed as a percentage of the total number of cells counted as shown in Tables 2 to 8 below.

[2] = system: HUH7 (human hepatoma cell line); test: Cell death detection, trypan blue exclusion assay, HUH7, in combination with AZD-6244; format: cell-based; conditions: HUH7, 6-day treatment, compound 0.5 μM
Description: as §1, §2

[3] = system: HUH7 (human hepatoma cell line); test: Cell death detection, trypan blue exclusion assay, HUH7; format: cell-based; conditions: Huh-7, 168 h, HUH7, 7-day treatment, read-out: Cell Death (%) at Tested Concentration
Description: as §1, §2

[4] = system: patient-derived primary squamous lung 14531 tumor; test: In vivo activity in SCID mouse model with lung cancer, 30-day treatment; conditions: patient-derived primary squamous lung 14531 tumor in mouse, compared to the control
Source text: Biological Test 4. In Vivo Activity in […] SCID Mouse Model with Lung Cancer
Biological Test 5. In Vivo Activity in Senograph SCID Mouse Model with Lung Cancer

[5] = system: HepG2 (human Hepatocellular carcinoma cell line); test: Cell death detection, trypan blue exclusion assay, HepG2; format: cell-based; conditions: HepG2, 5-day treatment
Description: as §1, §2

[6] = system: HT29 (human colon adenocarcinoma cell line); test: Cell death detection, trypan blue exclusion assay, HT29; format: cell-based; conditions: HT29, 5-day treatment
Description: as §1, §2

[7] = system: Hep3B (human hepatoma cell line); test: Cell death detection, trypan blue exclusion assay, Hep3B; format: cell-based; conditions: 5-day treatment
Description: as §1, §2

FLT3 = biological target: T1, FLT3 (Homo sapiens, UniProt P36888); test: In vitro kinase assay (Invitrogen SelectScreen Profiling Service), FLT3; format: biochemical; conditions: FLT3, 0.1 μM
T1 sequence (P36888 27-993): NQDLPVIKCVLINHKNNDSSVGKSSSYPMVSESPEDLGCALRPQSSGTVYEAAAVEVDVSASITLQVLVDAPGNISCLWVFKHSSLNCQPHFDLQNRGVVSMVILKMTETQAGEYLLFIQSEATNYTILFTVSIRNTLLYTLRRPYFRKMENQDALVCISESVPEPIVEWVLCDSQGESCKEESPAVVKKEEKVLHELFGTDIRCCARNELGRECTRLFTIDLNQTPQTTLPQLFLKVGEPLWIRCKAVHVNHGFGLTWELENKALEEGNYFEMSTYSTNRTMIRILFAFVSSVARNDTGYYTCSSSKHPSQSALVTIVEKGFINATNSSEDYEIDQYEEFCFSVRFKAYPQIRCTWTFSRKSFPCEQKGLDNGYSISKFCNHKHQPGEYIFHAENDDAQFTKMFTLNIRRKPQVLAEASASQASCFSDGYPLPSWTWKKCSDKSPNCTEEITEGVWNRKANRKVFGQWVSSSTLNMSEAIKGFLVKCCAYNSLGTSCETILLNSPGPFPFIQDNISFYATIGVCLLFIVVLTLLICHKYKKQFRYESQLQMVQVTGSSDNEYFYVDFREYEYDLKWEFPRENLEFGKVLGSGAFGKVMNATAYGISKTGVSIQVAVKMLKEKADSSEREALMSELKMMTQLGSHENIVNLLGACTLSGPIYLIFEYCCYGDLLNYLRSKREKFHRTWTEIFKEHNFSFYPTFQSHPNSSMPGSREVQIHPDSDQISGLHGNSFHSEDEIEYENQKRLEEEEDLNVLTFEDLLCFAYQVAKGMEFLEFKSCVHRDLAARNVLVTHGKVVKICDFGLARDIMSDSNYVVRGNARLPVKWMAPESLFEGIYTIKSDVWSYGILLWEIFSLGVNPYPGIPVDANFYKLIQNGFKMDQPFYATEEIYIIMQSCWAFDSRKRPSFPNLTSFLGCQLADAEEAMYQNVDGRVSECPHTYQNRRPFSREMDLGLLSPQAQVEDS
Description: (§3) Biological Test 1. In Vitro Kinase Assay for BRAF, FLT3 and KDR(VEGFR2) The inhibitory activities of the compounds of the invention were measured by Invitrogen's SelectScreen® Profiling Service.

KDR(VEGFR2) = KDR(VEGFR2) (Homo sapiens, UniProt P35968); test: In vitro kinase assay (Invitrogen SelectScreen Profiling Service), KDR; format: biochemical
Description: as §3

BRAF = BRAF (Homo sapiens, UniProt P15056); test: In vitro kinase assay (Invitrogen SelectScreen Profiling Service), BRAF; format: biochemical
Description: as §3

Chain of BRAF (P15056 whole entry): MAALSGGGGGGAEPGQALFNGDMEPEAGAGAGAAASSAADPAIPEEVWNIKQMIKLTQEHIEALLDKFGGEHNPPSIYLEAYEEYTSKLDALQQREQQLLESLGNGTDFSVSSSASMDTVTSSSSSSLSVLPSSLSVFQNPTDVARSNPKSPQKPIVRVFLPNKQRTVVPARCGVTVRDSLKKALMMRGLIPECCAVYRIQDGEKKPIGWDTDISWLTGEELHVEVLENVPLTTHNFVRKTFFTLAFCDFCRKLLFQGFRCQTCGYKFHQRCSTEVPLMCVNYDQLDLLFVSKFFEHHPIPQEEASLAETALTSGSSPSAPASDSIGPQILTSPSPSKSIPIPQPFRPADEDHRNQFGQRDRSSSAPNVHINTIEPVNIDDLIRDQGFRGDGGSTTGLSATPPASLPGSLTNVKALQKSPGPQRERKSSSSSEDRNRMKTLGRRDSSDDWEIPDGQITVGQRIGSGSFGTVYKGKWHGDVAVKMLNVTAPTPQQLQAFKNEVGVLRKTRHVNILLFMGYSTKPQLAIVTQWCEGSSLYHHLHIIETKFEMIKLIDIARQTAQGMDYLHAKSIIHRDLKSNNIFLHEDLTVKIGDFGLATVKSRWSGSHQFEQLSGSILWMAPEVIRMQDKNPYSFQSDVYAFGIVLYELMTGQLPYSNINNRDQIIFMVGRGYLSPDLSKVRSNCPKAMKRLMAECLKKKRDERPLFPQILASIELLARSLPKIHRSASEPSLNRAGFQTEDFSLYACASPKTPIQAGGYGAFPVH
Chain of KDR(VEGFR2) (P35968 20-1356): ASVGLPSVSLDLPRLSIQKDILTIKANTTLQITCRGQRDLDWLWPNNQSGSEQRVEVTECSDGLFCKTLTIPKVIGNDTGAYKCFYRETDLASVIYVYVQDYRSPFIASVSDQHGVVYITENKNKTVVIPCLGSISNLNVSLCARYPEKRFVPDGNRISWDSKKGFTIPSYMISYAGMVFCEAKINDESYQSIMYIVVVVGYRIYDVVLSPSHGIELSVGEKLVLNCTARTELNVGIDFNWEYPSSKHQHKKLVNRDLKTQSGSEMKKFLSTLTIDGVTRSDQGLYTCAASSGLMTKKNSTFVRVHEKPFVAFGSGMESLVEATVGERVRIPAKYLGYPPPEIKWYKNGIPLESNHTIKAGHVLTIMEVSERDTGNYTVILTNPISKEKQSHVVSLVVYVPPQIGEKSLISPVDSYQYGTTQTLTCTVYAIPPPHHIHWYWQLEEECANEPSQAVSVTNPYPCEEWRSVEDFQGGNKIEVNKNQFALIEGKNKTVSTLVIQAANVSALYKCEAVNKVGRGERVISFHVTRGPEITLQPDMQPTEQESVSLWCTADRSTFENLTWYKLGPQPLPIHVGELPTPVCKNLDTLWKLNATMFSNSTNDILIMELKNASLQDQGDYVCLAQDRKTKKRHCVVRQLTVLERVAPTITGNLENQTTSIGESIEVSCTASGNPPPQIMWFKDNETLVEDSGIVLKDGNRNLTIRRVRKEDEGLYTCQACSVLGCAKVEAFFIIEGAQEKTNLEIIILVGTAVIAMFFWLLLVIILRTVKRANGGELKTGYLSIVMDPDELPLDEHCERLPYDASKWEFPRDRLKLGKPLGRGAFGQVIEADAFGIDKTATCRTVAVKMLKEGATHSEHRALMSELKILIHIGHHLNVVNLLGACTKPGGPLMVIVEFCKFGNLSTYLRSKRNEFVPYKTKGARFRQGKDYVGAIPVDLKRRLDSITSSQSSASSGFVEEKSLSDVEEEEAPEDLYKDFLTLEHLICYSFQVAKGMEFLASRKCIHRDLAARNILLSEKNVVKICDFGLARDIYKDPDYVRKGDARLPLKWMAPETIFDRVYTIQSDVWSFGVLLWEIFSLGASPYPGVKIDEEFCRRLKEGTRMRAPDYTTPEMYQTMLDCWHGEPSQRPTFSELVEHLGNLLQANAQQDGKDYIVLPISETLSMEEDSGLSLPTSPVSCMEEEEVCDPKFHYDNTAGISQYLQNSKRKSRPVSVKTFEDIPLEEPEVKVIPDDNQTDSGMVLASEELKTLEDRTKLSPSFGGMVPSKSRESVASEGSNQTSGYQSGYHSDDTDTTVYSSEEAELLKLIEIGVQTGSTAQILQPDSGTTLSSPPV

Row | Compound | cytotoxicity at 1 µM ([1]; 72 h, 3-day treatment) [%] | cytotoxicity at 2.5 µM ([1]; 72 h, 3-day treatment) [%] | cytotoxicity at 5 µM ([1]; 72 h, 3-day treatment) [%] | cytotoxicity at 7.5 µM ([1]; 72 h, 3-day treatment) [%] | cytotoxicity at 10 µM ([1]; 72 h, 3-day treatment) [%] | cytotoxicity at 1 µM ([1]; 168 h, 7-day treatment) [%] | cytotoxicity at 2.5 µM ([1]; 168 h, 7-day treatment) [%] | cytotoxicity at 5 µM ([1]; 168 h, 7-day treatment) [%] | cytotoxicity at 7.5 µM ([1]; 168 h, 7-day treatment) [%] | cytotoxicity at 10 µM ([1]; 168 h, 7-day treatment) [%] | Cell Death (%) in combination with AZD-6244 ([2]; AZD-6244 0 μM) [%] | Cell Death (%) in combination with AZD-6244 ([2]; AZD-6244 0.5 μM) [%] | Cell Death (%) at Tested Concentration ([5]; 0.25 uM) [%] | Cell Death (%) at Tested Concentration ([5]; 3.0 uM) [%] | Cell Death (%) at Tested Concentration ([5]; 5.0 uM) [%] | Cell Death (%) at Tested Concentration ([6]; 2.5 uM) [%] | Cell Death (%) at Tested Concentration ([6]; 5.0 uM) [%] | Cell Death (%) at Tested Concentration ([6]; 10 uM) [%] | Cell Death (%) at Tested Concentration ([7]; 0.25 uM) [%] | Cell Death (%) at Tested Concentration ([7]; 3.0 uM) [%] | further results
1 | CNC(=O)c1cc(Oc2ccc(NC(=O)Nc3ccc(S(F)(F)(F)(F)F)cc3)c(F)c2)ccn1 [Example 10, 4-[3-fluoro-4-({[4-(pentafluoro-λ^6-sulfanyl)phenyl]carbamoyl}amino)phenoxy]-N-methylpyridine-2-carboxamide] | 1.8 | 1.9 | 9.4 | 11.3 | 68.3 | 2.2 | 2.8 | 99 | 99 | 99 | 1.7 | 94.6 | 2.7 | 4.2 | 4.8 | 18.3 | 54.6 | 56.7 | 3.4 | 7.6 | cytotoxicity at 1 µM [3]: 1.9%; cytotoxicity at 2.5 µM [3]: 2.2%; cytotoxicity at 5 µM [3]: 17.2%; cytotoxicity at 7.5 µM [3]: 87.6%; cytotoxicity at 10 µM [3]: 93.7%; effect in reducing the tumor volume [4]: significant effect in reducing the tumor volume; Cell Death (%) at Tested Concentration ([7]; 5.0 uM): 19.5%
2 | CNC(=O)c1cc(Oc2ccc(NC(=O)Nc3ccc(Cl)c(C(F)(F)F)c3)cc2)ccn1 [Sorafenib, reference compound] | 1.6 | 1.7 | 2.3 | 2.4 | 81.3 | 1.6 | 1.6 | 2.8 | 14.7 | 99 | 1.9 | 97.3 | 2.2 | 6.4 | 8.2 | 11.6 | 14.3 | 27.6 | 3.0 | 12.5 | effect in reducing the tumor volume [4]: significant effect in reducing the tumor volume; Cell Death (%) at Tested Concentration ([7]; 5.0 uM): 88.2%
3 | CNC(=O)c1cc(Oc2ccc(NC(=O)Nc3ccc(Cl)c(S(F)(F)(F)(F)F)c3)cc2)ccn1 [Example 3, 4-[4-({[4-chloro-3-(pentafluoro-λ^6-sulfanyl)phenyl]carbamoyl}amino)phenoxy]-N-methylpyridine-2-carboxamide] | 1.3 | 1.9 | 4.3 | 13.4 | 91.8 | 2.3 | 2.8 | 99 | 99 | 99 | 1.9 | 94.6 | 2.7 | 4.2 | 14.6 | 11.4 | 16.7 | 30.7 | 3.3 | 25.6 | inhibition at 0.1 µM (FLT3): 72%; inhibition at 0.1 µM (KDR(VEGFR2)): 64%; inhibition at 0.1 µM (BRAF): 11%; cytotoxicity at 1 µM [3]: 2.7%; cytotoxicity at 2.5 µM [3]: 4.5%; cytotoxicity at 5 µM [3]: 53.8%; cytotoxicity at 7.5 µM [3]: 79.6%; cytotoxicity at 10 µM [3]: 87.6%; Cell Death (%) at Tested Concentration ([7]; 5.0 uM): 90.7%
